This note sets out measurements from US20170165286A1, “COMPOSITIONS AND METHODS FOR TREATING DIABETES AND LIVER DISEASES” (Cempra Pharmaceuticals, Inc., priority 2014, published 2017).

Holding throughout (type): in vivo
Data set [1] relates to BLM-induced pulmonary fibrosis model mice. In words: Bleomycin-induced lung injury: BALF analysis, body weight. Conditions: for BALF Eosinophil / BALF Lymphocytes / BALF Macrophages / BALF Neutrophil / BALF Total cells: oral q.d. day −2 to 6. The method, then: (§1) Bleomycin-Induced Lung Injury. Lung inflammation is induced in female mice by a single intratracheal administration of bleomycin. Twenty mice are divided into two groups. […] It is to be understood herein that 100 mg/kg in mice is generally considered to be equivalent to a 450-500 mg, such as 480 mg, dose in humans. Animals are sacrificed on Day 7.
(§2) Pathogen-free 7 weeks old female C57BL/6J mice are obtained from CLEA Japan (Tokyo, Japan) and allowed to acclimate at least 6 days. On day 0, twenty mice are induced to develop pulmonary fibrosis by a single intratracheal administration of bleomycin sulphate (BLM, Nippon Kayaku, Japan) in 0.9% saline in a volume of 50 μL per animal using a Microsprayer® (Penn-Century, USA). Individual body weight is measured daily during the experiment period. Survival, clinical signs and behavior of mice is monitored daily.
(§3) Solithromycin Reduces Inflammation In Mice Caused By Bleomycin-Induced Lung Injury. Pulmonary fibrosis is a problem in the management of patients who have received chemotherapy for malignancies particularly with regimens that contain bleomycin (BLM), methotrexate, cyclophosphamide, and many new agents. These patients are susceptible to pulmonary infections as well as to inflammation from pulmonary injury. […] The effects of solithromycin on the ability to prevent lung inflammation and fibrosis is described in a bleomycin induced-lung inflammation and fibrosis model. Group 1 (BLM-Vehicle): Ten BLM-induced pulmonary fibrosis model mice are orally administered vehicle (Carboxymethyl cellulose) at a volume of 10 mL/kg once daily from day −2 (two days before BLM administration) to day 6. […]
BALF samples were collected by flushing the lung via the trachea with sterile PBS three times (0.8 mL each). The first lavage was kept separate from the other two. BALF was centrifuged at 1,000×g for 3 minutes at 4° C. and the supernatant was collected and stored at −80° C. until use. The cell pellet from the first fraction and the remaining fractions of lavage fluid were pooled. Total cell number of BALF was counted with a hemocytometer and the cell differentials were determined by cytospin preparation stained with Diff-Quick (Sysmex, Japan). A differential cell count was performed on up to about 200 cells.
MMP-9 in the BALF was quantified by the Mouse Total MMP-9 Quantikine ELISA Kit (R&D Systems, USA).
Analyses of BALF (bronchoalveolar lavage fluid). The cells in BALF are counted with a hemocytometer, and cell differentials are determined in cytospin preparations stained with Diff-Quik (Sysmex, Japan) MMP-9 in the supernatants from BALF are quantified by an enzyme-linked immunosorbent assay (ELISA; Cat# MMPT90, R&D Systems, USA). Histopathological assays for lung sections are performed according to standard methods. Masson's Trichrome staining and estimation of Ashcroft Score includes HE staining. Gene expression assays using total RNA from the lung are obtained using real-time RT-PCR analyses performed for TNF-α, MCP-1 and MMP-9.

The test system of data set [2] is lung mRNA expression levels. In words: Bleomycin-induced lung injury: quantitative RT-PCR of lung. To be noted: bleomycin mice lung, normalized to GAPDH, vehicle 1.00, heading says 50 mg/kg q.d. As to the method:
as §1, §2, §3
Quantitative RT-PCR. Total RNA was extracted from lung samples using RNAiso (Takara Bio, Japan). One μg of RNA was reverse-transcribed using a reaction mixture containing 4.4 mM MgCl2 (Roche, Switzerland), 40 U RNase inhibitor (Toyobo, Japan), 0.5 mM dNTP (Promega, USA), 6.28 μM random hexamer (Promega), 5× first strand buffer (Promega), 10 mM dithiothreitol (Invitrogen) and 200 U MMLV-RT (Invitrogen) in a final volume of 20 μL. The reaction was carried out for 1 hour at 37° C., followed by 5 minutes at 99° C. Real-time PCR was performed using real-time PCR DICE and SYBR premix Taq (Takara Bio). To calculate the relative mRNA expression level, the expression of each gene was normalized to that of reference gene GAPDH.
Analyses of BALF (bronchoalveolar lavage fluid). The cells in BALF are counted with a hemocytometer, and cell differentials are determined in cytospin preparations stained with Diff-Quik (Sysmex, Japan) MMP-9 in the supernatants from BALF are quantified by an enzyme-linked immunosorbent assay (ELISA; Cat# MMPT90, R&D Systems, USA). Histopathological assays for lung sections are performed according to standard methods. […]

A short description of data set [3]: QT / tQT effects and plasma levels. The text has this: The compounds described herein, including solithromycin, are effective in treating host animals with high cardiovascular disease risk.
Data set [4] in a line: Absorption, metabolism and excretion of orally administered solithromycin. Conditions: oral. The text has this:
Macrolide antibiotics, like solithromycin, are primarily metabolized and excreted through liver-dependent mechanisms; this study evaluated the safety and PK of solithromycin in patients with chronic liver disease. It has been observed that approximately 78% of orally administered solithromycin is absorbed. Less than 15% unchanged solithromycin is excreted in the feces. It has also been observed that ˜70% of orally administered solithromycin is metabolized and excreted by the liver. Accordingly, high liver concentrations are observed. No dosage adjustment is needed when administering solithromycin to patients with mild, moderate, or severe hepatic impairment.

The mark [5] stands for this setting: bleomycin mice, heading says 50 mg/kg q.d.
[6] abbreviates: bleomycin mice, heading says 50 mg/kg q.d., listed as SOLI.

Turning to `CC[C@H]1OC(=O)[C@@](C)(F)C(=O)[C@H](C)[C@@H](O[C@@H]2O[C@H](C)C[C@H](N(C)C)[C@H]2O)[C@](C)(OC)C[C@@H](C)C(=O)[C@H](C)[C@H]2N(CCCCn3cc(-c4cccc(N)c4)nn3)C(=O)O[C@]12C` [solithromycin], in data set [1] (bleomycin mice BALF (ELISA), heading says 50 mg/kg q.d.), the MMP-9 expression entry is recorded as “decreasing trend”. In addition, the “Body weight changes compared to vehicle group” value in data set [1] (bleomycin mice, any day and day of sacrifice) was “no significant differences”. In data set [1] (setting [5]), the “BALF Eosinophil” value is “significantly decreased”, the “BALF Lymphocytes” value is reported as “significantly decreased”, the “BALF Macrophages” value is “no significant difference” and the “BALF Neutrophil” value is listed as “significantly decreased”. For the same compound, in data set [1] (setting [5]), the “BALF Total cells” value was “significantly decreased”. In data set [1] (setting [6]), the “BALF Eosinophil” value is 0.3 ± 0.2 × 10^4, the “BALF Lymphocytes” value is on record as 3.9 ± 1.9 × 10^4, the “BALF Macrophages” value was 16.9 ± 9.6 × 10^4 and the “BALF Neutrophil” value was 0.7 ± 0.4 × 10^4. Moreover, in data set [1] (setting [6]), the “BALF Total cells” value is 2.2 ± 1.2 × 10^5. In addition, in data set [2], the “Relative MCP-1 mRNA expression” value is 0.38 ± 0.32 and the “Relative MMP-9 mRNA expression” value was 0.42 ± 0.45. Also, the “Relative TNF-α mRNA expression” value in data set [2] (listed as SOLI) was found to be 2.45 ± 2.10. Besides, in data set [2] (listed as Solithromycin), the “Relative TNF-α mRNA expression” value is on record as “up-regulated”. Besides, the Plasma levels achieved in data set [3] (PK analysis in QT evaluation) was in the range of 2 to 3 µg/mL. Besides, the “QT or tQT prolongation” value in data set [3] (dosed orally or intravenously) was “does not show any QT or tQT prolongation”. In data set [4], the “Fraction of orally administered dose absorbed” value is listed as “approximately 78%”; the “Fraction of orally administered dose metabolized and excreted by the liver” value is around 70%; the “Unchanged drug excreted in the feces” value was “Less than 15%”.
